The values below come from patent publication US20110065087A1, “NOVEL HIV TARGETS” (priority 2007, published 2011).

The data set concerns HXB2 HIV. Description: Rescue of 3′UTR siRNA-mediated inhibition of HIV replication by non-targeted cDNA, β-galactosidase readout. The data set is classed as cell-based. As to conditions: LIG3 cDNA lacking the 3′UTR; FIG. 7.

d = 2'-deoxy (DNA); r = 2'-OH (RNA)

As to “CAUACUCUCCUUUACCAUAdTdT (CAUACUCUCCUUUACCAUATT; siRNA; sugars from the 5' end r19 d2, backbone not given here) [LIG3 siRNA #8, siRNA targeting the 3′UTR of LIG3]”, the “p, difference between siRNA+vector-transfected and siRNA+cDNA transfected” value was less than 0.05.
